Read-outs that look alike come from different tables or passages of the source.
Test system: cancer cell lines
Test: Cancer cell proliferation activity (CellTiterGlo, 72 h)
Assay type: cell-based
Conditions: 72 h, 72 h, read-out: IC50 cell proliferation
How it was run: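 Readout is CellTiterGlo luminescence after 72 h compound exposure (0.1% DMSO final), started one day post-seeding, at 37 °C.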

- IC50 (5637 (bladder)): 0.23 µM
- IC50 (CLS439 (bladder)): 0.4 µM
- IC50 (HS729 (muscle)): 0.15 µM
- IC50 (J82 (bladder)): 0.16 µM
- IC50 (JAR (placenta)): 0.1 µM
- IC50 (MT3 (breast)): 0.12 µM
- IC50 (PANCI (pancreas)): 2.25 µM
- IC50 (PC3 (prostate)): 0.22 µM
- IC50 (RD (muscle)): 0.21 µM
- IC50 (T24 (bladder)): 0.3 µM
- IC50 (Homo sapiens, 22Rv1, 72 h, 22RV1 (prostate)): 0.54 µM
- IC50 (Homo sapiens, 786-0, 72 h, 786O (kidney)): 0.11 µM
- IC50 (Homo sapiens, A204, 72 h, A204 (muscle)): 0.14 µM
- IC50 (Homo sapiens, A549, 72 h, A549 (lung)): 0.06 µM
- IC50 (Homo sapiens, A673, 72 h, A673 (bone)): 0.7 µM
- IC50 (Homo sapiens, A2780, 72 h, A2780 (ovary)): 0.39 µM
- IC50 (Homo sapiens, A-375, 72 h, A375 (skin)): 0.11 µM
- IC50 (Homo sapiens, A-431, 72 h, A431 (skin)): 0.07 µM
- IC50 (Homo sapiens, ACHN, ACHN (kidney)): 0.09 µM
- IC50 (Homo sapiens, ASPC1, 72 h, ASPC1 (pancreas)): 0.13 µM
- IC50 (Homo sapiens, BT-20, 72 h, BT20 (breast)): 0.11 µM
- IC50 (Homo sapiens, BXPC-3, 72 h, BXPC3 (pancreas)): 0.08 µM
- IC50 (Homo sapiens, C-33-A, C33A (endometrial)): 0.38 µM
- IC50 (Homo sapiens, CAKI-1, 72 h, CAKI1 (kidney)): 0.02 µM
- IC50 (Homo sapiens, COLO 205, 72 h, COLO205 (colon)): 0.33 µM
- IC50 (Homo sapiens, COLO-678, 72 h, COLO678 (colon)): 0.1 µM
- IC50 (Homo sapiens, Ca-Ski, CASKI (endometrial)): 0.05 µM
- IC50 (Homo sapiens, Caco-2, 72 h, CACO2 (colon)): 0.28 µM
- IC50 (Homo sapiens, Calu-6, 72 h, CALU6 (lung)): 0.04 µM
- IC50 (Homo sapiens, DLD-1, 72 h, DLD1 (colon)): 0.51 µM
- IC50 (Homo sapiens, DU-145, 72 h, DU145 (prostate)): 0.03 µM
- IC50 (Homo sapiens, EFO-21, 72 h, EFO21 (ovary)): 0.15 µM
- IC50 (Homo sapiens, EJ-28, 72 h, EJ28 (bladder)): 0.14 µM
- IC50 (Homo sapiens, Granta-519, 72 h, GRANTA-519 (hematological)): 0.16 µM
- IC50 (Homo sapiens, HCT-15, 72 h, HCT15 (colon)): 0.29 µM
- IC50 (Homo sapiens, HCT-116, 72 h, HCT116 (colon)): 0.25 µM
- IC50 (Homo sapiens, HEK293, 72 h, HEK293 (kidney)): 0.2 µM
- IC50 (Homo sapiens, HL-60, 72 h, HL-60 (hematological)): 0.1 µM
- IC50 (Homo sapiens, HT-29, 72 h, HT29 (colon)): 0.26 µM
- IC50 (Homo sapiens, HT-1080, 72 h, HT1080 (connective tissue)): 0.27 µM
- IC50 (Homo sapiens, HeLa, HELA (endometrial)): 0.08 µM
- IC50 (Homo sapiens, HepG2, 72 h, HEPG2 (liver)): 0.17 µM
- IC50 (Homo sapiens, Hs-578T, HS578T (breast)): 0.06 µM
- IC50 (Homo sapiens, IGROV-1, 72 h, IGROV1 (ovary)): 0.08 µM
- IC50 (Homo sapiens, IMR-90, 72 h, IMR90 (lung)): 0.06 µM
- IC50 (Homo sapiens, JEG-3, 72 h, JEG3 (placenta)): 0.1 µM
- IC50 (Homo sapiens, JIMT-1, 72 h, JIMT1 (breast)): 0.03 µM
- IC50 (Homo sapiens, K562, 72 h, K-562 (hematological)): 0.53 µM
- IC50 (Homo sapiens, Kasumi 1, 72 h, KASUMI-1 (hematological)): 0.02 µM
- IC50 (Homo sapiens, L-363, 72 h, L-363 (hematological)): 0.09 µM
- IC50 (Homo sapiens, LoVo, LOVO (colon)): 0.03 µM
- IC50 (Homo sapiens, MCF7, 72 h, MCF7 (breast)): 0.39 µM
- IC50 (Homo sapiens, MDA-MB-231, 72 h, MDAMB231 (breast)): 0.24 µM
- IC50 (Homo sapiens, MDA-MB-435, 72 h, MDAMB435 (skin)): 0.32 µM
- IC50 (Homo sapiens, MDA-MB-436, 72 h, MDAMB436 (breast)): 0.08 µM
- IC50 (Homo sapiens, MDA-MB-468, 72 h, MDAMB468 (breast)): 0.07 µM
- IC50 (Homo sapiens, MG-63, 72 h, MG63 (bone)): 1.73 µM
- IC50 (Homo sapiens, MHH-ES-1, 72 h, MHHES1 (bone)): 0.17 µM
- IC50 (Homo sapiens, MIA PaCa-2, 72 h, MIAPACA2 (pancreas)): 1.75 µM
- IC50 (Homo sapiens, MINO, MINO (hematological)): 0.02 µM
- IC50 (Homo sapiens, MV4-11, 72 h, MV4-11 (hematological)): 0.02 µM
- IC50 (Homo sapiens, NCI-H23, 72 h, NCI-H23 (lung)): 0.22 µM
- IC50 (Homo sapiens, NCI-H82, 72 h, NCIH82 (lung)): 0.17 µM
- IC50 (Homo sapiens, NCI-H292, 72 h, NCIH292 (lung)): 0.15 µM
- IC50 (Homo sapiens, NCI-H460, 72 h, NCIH460 (lung)): 0.17 µM
- IC50 (Homo sapiens, OVCAR-3, 72 h, OVCAR3 (ovary)): 0.08 µM
- IC50 (Homo sapiens, OVCAR-4, 72 h, OVCAR4 (ovary)): 0.15 µM
- IC50 (Homo sapiens, PLC-PRF-5, 72 h, PLCPRF5 (liver)): 1.04 µM
- IC50 (Homo sapiens, Panc1005, 72 h, PANC1005 (pancreas)): 0.18 µM
- IC50 (Homo sapiens, Ramos, RAMOS (hematological)): 0.14 µM
- IC50 (Homo sapiens, SAOS-2, 72 h, SAOS2 (bone)): 0.1 µM
- IC50 (Homo sapiens, SF-268, 72 h, SF268 (brain)): 0.3 µM
- IC50 (Homo sapiens, SF-295, 72 h, SF295 (brain)): 0.22 µM
- IC50 (Homo sapiens, SK-BR-3, 72 h, SKBR3 (breast)): 0.03 µM
- IC50 (Homo sapiens, SK-HEP1, 72 h, SKHEP1 (liver)): 0.06 µM
- IC50 (Homo sapiens, SK-LMS-1, 72 h, SKLMS1 (uterus)): 0.14 µM
- IC50 (Homo sapiens, SK-MEL-5, 72 h, SKMEL5 (skin; SKMELS [sic] in Table 9E)): 0.09 µM
- IC50 (Homo sapiens, SK-MEL-28, 72 h, SKMEL28 (skin)): 0.1 µM
- IC50 (Homo sapiens, SK-N-AS, SKNAS (brain)): 0.12 µM
- IC50 (Homo sapiens, SK-N-SH, SKNSH (brain)): 0.08 µM
- IC50 (Homo sapiens, SK-OV-3, 72 h, SKOV3 (ovary)): 0.09 µM
- IC50 (Homo sapiens, SNB-75, 72 h, SNB75 (brain)): 0.22 µM
- IC50 (Homo sapiens, SU-DHL10, 72 h, SU-DHL-10 (hematological)): 0.21 µM
- IC50 (Homo sapiens, SU-DHL-6, 72 h, SU-DHL-6 (hematological)): 0.06 µM
- IC50 (Homo sapiens, SW-620, 72 h, SW620 (colon)): 0.08 µM
- IC50 (Homo sapiens, TE-671, 72 h, TE671 (muscle)): 0.73 µM
- IC50 (Homo sapiens, THP-1, 72 h, THP-1 (hematological)): 0.2 µM
- IC50 (Homo sapiens, U2OS, U20S (bone; U2OS in Table 9E)): 0.07 µM
- IC50 (Homo sapiens, U-87 MG, U87MG (brain)): 0.15 µM
- IC50 (Homo sapiens, UMUC3, 72 h, UMUC3 (bladder)): 0.19 µM
- IC50 (Homo sapiens, UO-31, 72 h, UO31 (kidney)): 0.05 µM
- IC50 (Homo sapiens, WSU-NHL, WSU-NHL (hematological)): 0.04 µM
- IC50 (NCI-H358M, NCIH358M (lung)): 0.14 µM
- IC50 (PBMC, PBMC (hematological)): 0.02 µM
- IC50 (RD-ES, RDES (bone)): 0.04 µM
Structure (SMILES): CCC[C@]1(CO)O[C@@H](n2cnc3c(N)nc(F)nc32)[C@H](O)[C@@H]1O [compound 195, (2R,3S,4R,5R)-5-(6-amino-2-fluoro-9H-purin-9-yl)-2-(hydroxymethyl)-2-propyltetrahydrofuran-3,4-diol]

Reference: patent US20250215039A1, “NUCLEOSIDES FOR TREATING CANCER” (PRIMEFOUR THERAPEUTICS, INC., priority 2022, published 2025)
